Assay results from PMC9607427, “Novel 7-Chloro-(4-thioalkylquinoline) Derivatives: Synthesis and Antiproliferative Activity through Inducing Apoptosis and DNA/RNA Damage” (Pharmaceuticals, 2022).

Legend:
Assay type in all cases: cell-based, human
[1] = Cytotoxic MTS assay, BJLD; conditions: human, BJLD cells (fibroblasts, doxorubicin-resistant); MTS, 72 h of incubation
Experimental: (§1) In vitro cytotoxic activity of final compounds 5–82 was evaluated after 3 days of incubation against eight cell lines derived from human solid tumors including lung (A549 cells) and colon (HCT116 and HCT116p53−/−) carcinomas, as well as leukemia cell lines (CCRF-CEM, CEM-DNR, K562, and K562-TAX) and osteosarcoma (U2OS cells). For comparison, non-malignant BJ and MRC-5 fibroblasts, and BJLD and MCR-5LD fibroblasts doxorubicin-resistant cell lines were used. Concentrations inhibiting the cell growth by 50% (IC50) were determined using a quantitative metabolic staining with 3-(4,5-dimethylthiazol-2yl)-5-(3-carboxymethoxyphenyl)-2-(4-sulfophenyl)-2H-tetrazolium (MTS) and are summarized in (Table 3).
(§2) Cytotoxic activity was determined by MTS assay following 72 h of incubation. IC50 is the lowest concentration that kills 50% of cells. The standard deviation in cytotoxicity assays is typically up to 20% of the average value. […] The tested cell lines: A549 (lung adenocarcinoma), BJ (noncancerous human fibroblasts from foreskin), BJLD (human lung fibroblast doxorubicin-resistant), CCRF-CEM (childhood T cell acute lymphoblastic leukemia), a daunorubicin-resistant subline of CCRF-CEM cells (CEM-DNR bulk), HCT116 (colorectal carcinoma), HCT116p53−/− (HCT116 with deleted p53 gene), K562 (chronic myeloid leukemia), K562-TAX (chronic myeloid leukemia paclitaxel-resistant subline), MRC-5 (noncancerous human lung fibroblasts), MRC-5LD (noncancerous human lung fibroblasts doxorubicin-resistant), and U2OS (osteosarcoma).
(§3) All cell lines were purchased from the American Tissue Culture Collection (ATCC). The A549 cell line is lung adenocarcinoma. MRC-5 and BJ cell lines were used as a non-tumor control and represent human fibroblasts. (MRC-5 LD and BJLD) are doxorubicin-resistant human lung fibroblast cell lines. The CCRF-CEM line is derived from T lymphoblastic leukemia, evincing high chemosensitivity, whereas K562 represent cells from an […] patient sample with bcr-abl translocation. The daunorubicin-resistant subline of CCRF-CEM cells (CEM-DNR bulk) and paclitaxel-resistant subline K562-TAX were selected in our laboratory by the cultivation of maternal cell lines in increasing concentrations of daunorubicin or paclitaxel, respectively. The CEM-DNR bulk cells overexpress MRP-1 and P-glycoprotein protein, whereas K562-TAX cells overexpress P-glycoprotein only. Both proteins belong to the family of ABC transporters and are involved in the primary and/or acquired multidrug-resistance phenomenon. The U2OS cell line is derived from osteosarcoma, HCT116 is a colorectal tumor cell line and its p53 gene knock-down counterpart (HCT116p53−/−, Horizon Discovery Ltd., Cambridge, UK) is a model of human cancers with p53 mutation frequently associated with poor prognosis. The cells were maintained in nunc/corning 80 cm^2 plastic tissue culture flasks and cultured in a cell culture medium according to ATCC or Horizon recommendations (DMEM/RPMI 1640 with 5 g/L glucose, 2 mM glutamine, 100 U/mL penicillin, […], 10% fetal calf serum, and NaHCO3).
(§4) The activity of compounds was determined using a standard 3-(4,5-dimethylthiazol-2-yl)-5-(3-carboxymethoxyphenyl)-2-(4-sulfophenyl)-2H-tetrazolium (MTS) and it was performed at the Institute of Molecular and Translational Medicine by a robotic platform (High-ResBiosolutions). Cell suspensions were prepared and diluted according to the particular cell type and the expected target cell density (25,000–35,000 cells/mL based on cell growth characteristics). Cells were added by automatic pipettor (30 µL) into 384-well microtiter plates. All tested compounds were dissolved in 100% DMSO and four-fold dilutions of the intended test concentration were added in 0.15 µL aliquots at time zero to the microtiter plate wells by the echo acoustic non-contact liquid handler Echo550 (Labcyte). […]

[2] = system: U2OS (osteosarcoma); assay: Cytotoxic MTS assay, U2OS; conditions: Homo sapiens, U2OS; MTS, 72 h of incubation; read-out: Cytotoxic activity IC50, U2OS
Experimental: as §1, §2, §3, §4

[3] = system: HCT116p53−/− (HCT116 with deleted p53 gene); assay: Cytotoxic MTS assay, HCT116p53−/−; conditions: Homo sapiens, HCT-116; MTS, 72 h of incubation; read-out: Cytotoxic activity IC50, HCT116-p53
Experimental: as §1, §2, §3, §4

[4] = system: K562-TAX (chronic myeloid leukemia paclitaxel-resistant subline); assay: Cytotoxic MTS assay, K562-TAX; conditions: Homo sapiens, K562-Tax; MTS, 72 h of incubation; read-out: Cytotoxic activity IC50, K562-TAX
Experimental: as §1, §2, §3, §4

[5] = system: HCT116 (colorectal carcinoma); assay: Cytotoxic MTS assay, HCT116; conditions: Homo sapiens, HCT-116; MTS, 72 h of incubation; read-out: Cytotoxic activity IC50, HCT116
Experimental: as §1, §2, §3, §4

[6] = system: CCRF-CEM (childhood T cell acute lymphoblastic leukemia); assay: Cytotoxic MTS assay, CCRF-CEM; conditions: Homo sapiens, CCRF-CEM; MTS, 72 h of incubation; read-out: Cytotoxic activity IC50, CCRF-CEM
Experimental: as §1, §2, §3, §4

[7] = system: K562 (chronic myeloid leukemia); assay: Cytotoxic MTS assay, K562; conditions: Homo sapiens, K562; MTS, 72 h of incubation; read-out: Cytotoxic activity IC50, K562
Experimental: as §1, §2, §3, §4

[8] = Cytotoxic MTS assay, MRC-5LD; conditions: human; MTS, 72 h of incubation; read-out: Cytotoxic activity IC50, MRC5-LD
Experimental: as §1, §2, §3, §4

[9] = system: CEM-DNR bulk (daunorubicin-resistant subline of CCRF-CEM cells); assay: Cytotoxic MTS assay, CEM-DNR; conditions: Homo sapiens, CEM-DNR; MTS, 72 h of incubation; read-out: Cytotoxic activity IC50, CEM-DNR
Experimental: as §1, §2, §3, §4

[10] = system: A549 (lung adenocarcinoma); assay: Cytotoxic MTS assay, A549; conditions: Homo sapiens, A549; MTS, 72 h of incubation; read-out: Cytotoxic activity IC50, A549
Experimental: as §1, §2, §3, §4

[11] = Cytotoxic MTS assay, BJ; conditions: human, BJ cells (noncancerous foreskin fibroblasts); MTS, 72 h of incubation
Experimental: as §1, §2, §3, §4

[12] = Cytotoxic MTS assay, MRC-5; conditions: human, MRC-5 cells (noncancerous lung fibroblasts); MTS, 72 h of incubation
Experimental: as §1, §2, §3, §4

| SMILES | IC50 at 72 h [1] [µM] | IC50 [2] [µM] | IC50 [3] [µM] | IC50 [4] [µM] | IC50 [5] [µM] | IC50 [6] [nM] | IC50 [7] [µM] | IC50 at 72 h [8] [µM] | IC50 [9] [µM] | IC50 [10] [µM] | IC50 at 72 h [11] [µM] | IC50 at 72 h [12] [µM] |
| --- | --- | --- | --- | --- | --- | --- | --- | --- | --- | --- | --- | --- |
| Cc1ccc([N+](=O)[O-])c(C(=O)OCCC[S+]([O-])c2ccnc3cc(Cl)ccc23)c1 (stereo not drawn) [Compound 60, 3-[(7-Chloroquinolin-4-yl)sulfinyl]propyl-5-methyl-2-nitrobenzoate] | 18.1 | 5.81 | 6.06 | 4.26 | 7.77 | 1130 | 8.86 | 19.8 | 7.27 | 9.55 | 29 | 29.4 |
| Cc1cc(C)cc(C(=O)OCCC[S+]([O-])c2ccnc3cc(Cl)ccc23)c1 (stereo not drawn) [Compound 61, 3-[(7-Chloroquinolin-4-yl)sulfinyl]propyl-3,5-dimethylbenzoate] | 27.6 | 8.1 | 6.89 | 6.76 | 8.26 | 1050 | 12.7 | 22.1 | 8.35 | 10.9 | 30.3 | 26.1 |
| COc1cc(C(=O)OCCC[S+]([O-])c2ccnc3cc(Cl)ccc23)cc(OC)c1OC (stereo not drawn) [Compound 57, 3-[(7-Chloroquinolin-4-yl)sulfinyl]propyl-3,4,5-trimethoxybenzoate] | 31.9 | 21.3 | 14.8 | 14.6 | 19.3 | 1510 | 17.4 | 25.8 | 16 | 30.5 | 33 | 29.9 |
| COc1ccc(C(=O)OCCC[S+]([O-])c2ccnc3cc(Cl)ccc23)cc1[N+](=O)[O-] (stereo not drawn) [Compound 59, 3-[(7-Chloroquinolin-4-yl)sulfinyl]propyl-4-methoxy-3-nitrobenzoate] | 10.2 | 5.15 | 6.81 | 6.12 | 8.86 | 1200 | 8.77 | 10.3 | 8.81 | 7.76 | 21.6 | 23.7 |
| [O-][S+](CCO)c1ccnc2cc(Cl)ccc12 (stereo not drawn) [Compound 41, 2-[(7-Chloroquinolin-4-yl)sulfinyl]ethanol] | 28.5 | 22.1 | 22.5 | 21.4 | 23.5 | 4520 | 27.8 | 24.5 | 35.1 | 34.4 | 33.3 | 26.5 |
| O=C(OCCC[S+]([O-])c1ccnc2cc(Cl)ccc12)c1ccc(C(F)(F)F)cc1 (stereo not drawn) [Compound 62, 3-[(7-Chloroquinolin-4-yl)sulfinyl]propyl-4-(trifluoromethyl)benzoate] | 30.1 | 14.3 | 9.61 | 9.15 | 15.7 | 1170 | 17.6 | 25.9 | 10.5 | 26.1 | 29.9 | 29.4 |
